From US9095613B2, “Photosensitizer-metal nanoparticle charge complex and composition containing the complex for photodynamic therapy or diagnosis” (NATIONAL CANCER CENTER, priority 2009, dated 2015)
Where two headings read alike, the source gives them in different places.

How the values were obtained:
skin photosensitivity = conditions: patient after administration; cited from earlier work
[1] = at 630 nm; cited from earlier work
[2] = test system: SCC7 (Squamous cell Carcinoma) cell line; test: Quantitative analysis of uptake into cells (fluorescence of cell lysis solution); assay type: cell-based; conditions: 5 μM AlPcS4 equivalent, 4 hours
Procedure: 90000 cells of a SCC7 (Squamous cell Carcinoma) cell line per well were seeded in a 96 well plate and cultured for 24 hours. Afterwards, the AlPcS4 and the GNR/AlPcS4 complex prepared in Preparation Example 2-4 were diluted with a cell culture medium containing serum to have an equivalent concentration of 5 μM AlPcS4. […] of the diluted solution per well was added, and maintained at 37° C. for 4 hours. Subsequently, after the cell culture medium containing the photosensitizer was removed, the cells were washed three times, and then treated with 200 μl of 0.1% SDS/0.1M NaOH solution for 2 hours for cell lysis. Then, a fluorescence signal of the AlPcS4 generated from this solution was measured (Ex. 660 nm, Em. 690 nm).

[3] = at 675 nm, known value; cited from earlier work
SCC7 cell line = test: Cell viability test after photodynamic therapy (CCK-8); assay type: cell-based; conditions: 5 μM AlPcS4 equivalent, 670 nm, 10 J/cm^2, after 24 hours
Procedure: 9000 cells of a SCC7 cell line per well were seeded in a 96 well plate, and cultured for 24 hours. After the AlPcS4 and the GNR/AlPcS4 complex prepared in Preparation Example 2-4 were diluted with a cell culture medium to have an equivalent concentration of 5 μM AlPcS4, 200 μl of the diluted solution per well was added and then maintained at 37° C. for 4 hours. For a control group, the same volume of cell culture medium was added to the plate. Afterwards, to remove the photosensitizer which was not taken up into the cell, the cells were washed with a cell culture medium twice, and then a fresh cell culture medium was added. The PDT-treated groups were irradiated with light at 670 nm using laser under conditions of a light dose density of 50 mW/cm^2 and light doses of 5 J/cm^2 and 10 J/cm^2. After 24 hours, cell viability was measured using a cell counting kit-8 (CCK-8, Dojindo Laboratories).

SCC7 xenograft tumor [4] = test: Near-infrared fluorescence imaging of tumor in xenograft model; assay type: in vivo, Balb/c-nu mice; conditions: 1 mg AlPcS4 equivalent/kg, tail vein, 24 hours after injection
Procedure: (§1) 2×10^6 cells per 100 μl of the SCC7 cell line were injected subcutaneously to hind legs of Balb/c-nu mice of 19 to 22 g to create xenograft tumor models. When a tumor was grown to a size of about […], 29 experimental animals were divided into three groups (Day 0) based on the tumor size. Among them, 6 mice were used for near-infrared fluorescence imaging using the photosensitizer, and the other 23 mice were used to observe an inhibitory effect on tumor growth through the photodynamic therapy. A volume of the tumor was calculated with an equation of height×length×width×0.5.
(§2) For each of the AlPcS4-treated group and the GNR/AlPcS4 complex-treated group, the drug (each of AlPcS4 and GNR/AlPcS4 complex prepared in Preparation Example 2-4) dissolved in PBS (6.7 mM, pH 7.4, NaCl 154 mM) was injected into a tail vein of a mouse at the dose of 1 mg AlPcS4 equivalent/kilogram body weight. […] To compare the near-infrared fluorescence image and the accumulated amount in the tumor of the injected photosensitizer, two mice were taken from each group after 24 hours from the treatment of the drug (Day 2), and therefrom fluorescence images of AlPcS4 were obtained using a near-infrared fluorescence image device (IVIS Lumina) (Cy5.5 channel; Ex. filter 615-665 nm, Em. Filter 695-770 nm).

SCC7 xenograft tumor [5] = test: Inhibition of tumor growth by photodynamic therapy in xenograft model; assay type: in vivo, Balb/c-nu mice; conditions: 1 mg AlPcS4 equivalent/kg i.v., 670 nm 60 J/cm^2
Procedure: as §1
as §2, with “nm). […]” for “nm).”

Photofrin
duration of side effect of skin photosensitivity (skin photosensitivity): more than 6 week
molar absorption coefficient [1]: 1170 M⁻¹ cm⁻¹

Al(III) phthalocyanine chloride tetrasulfonic acid [AlPcS4]
effect of increasing amount of serum (FBS) on uptake into cells [2]: greatly decreased
molar absorption coefficient [3]: 170000 M⁻¹ cm⁻¹
phototoxicity (SCC7 cell line): 64%
average fluorescence signal in tumor (SCC7 xenograft tumor [4]): 7224 counts
tumor-to-background ratio of the AlPcS4 fluorescence (SCC7 xenograft tumor [4]): 2.5
course of tumor size after photodynamic therapy (SCC7 xenograft tumor [5]): temporarily decreased
size of the tumor relative to control group (SCC7 xenograft tumor [5]; fifth day): 67%

C=Cc1c(C)c2cc3nc(c(CC(=O)N[C@@H](CC(=O)[O-])C(=O)[O-])c4nc(cc5[nH]c(cc1[nH]2)c(C)c5CC)C(C)=C4C(=O)[O-])[C@@H](CCC(=O)[O-])[C@@H]3C.[Na+].[Na+].[Na+].[Na+] [Mono-L-aspartyl chlorine e6, mono-L-aspartyl chlorine e6]
duration of side effect of skin photosensitivity (skin photosensitivity): 1 week
